From patent publication US11702393B2, “Synthesis of a monoacylglycerol lipase inhibitor” (H. LUNDBECK A/S, priority 2020, dated 2023)
Like-named read-outs stand apart in the source and are kept apart here.

Key:
[1] = process described in the prior art (WO2018/093953); cited from earlier work
[2] = Particle size distribution determination by image analysis (Morphologi G3); type: physicochemical
Text: The term “particle size distribution” (PSD) as used herein refers to the mean particle size from a statistical distribution of a range of particle sizes. The Compound I-HCl form 2 particle size distribution, in particular d90, d50, d10 values, may be determined by well-known methods of the prior art such as sieve analysis, laser diffraction methods, image analysis or optical counting methods.
As used herein, by “d90 particle size” refers to the particle diameter wherein 90 percent of the particle population has a diameter below such value.
As used herein, by “d50 particle size” refers to the median particle diameter, wherein half of the particle population has a diameter below such value.
As used herein, by “d10 particle size” refers to the particle diameter wherein 10 percent of the particle population has a diameter below such value.
The analysis of particle size distribution of each batch was performed by an image analysis method on a Morphologi G3 Automated Particle Characterization System (Malvern PaNanalytical) with a sample Dispersion Unit SDU Glass Plate (180×110 mm); the instrument automatically process the collected data using the software Morphologi ver. 8.20 and provides a cumulative distribution curve and results in terms of d10, d50 and d90.

[3] = made according to Example 13, not milled
[4] = made from Example 13, after milling (hammer mill, Example 14)

d10 particle size [2, 3]: d10 53.5 μm
d50 particle size [2, 3]: d50 133.1 μm
d90 particle size [2, 3]: d90 201.7 μm
d10 particle size [2, 4]: d10 24 μm
d50 particle size [2, 4]: d50 67 μm
d90 particle size [2, 4]: d90 175 μm
Compound: Cl.O=C(OC(C(F)(F)F)C(F)(F)F)N1CCN(Cc2ccc(C(F)(F)F)cc2N2CCCC2)CC1 [Compound I-HCl form 2, 1,1,1,3,3,3-hexafluoropropan-2-yl 4-(2-(pyrrolidin-1-yl)-4-(trifluoromethyl)benzyl)piperazine-1-carboxylate mono-hydrochloride salt Form 2]
d10 particle size [1]: ≥ 5 µm
d90 particle size [1]: up to 300 μm
